In the assay the target is T1, (S)-6-hydroxynicotine oxidase (Paenarthrobacter nicotinovorans, UniProt O86101).
T1 sequence (O86101 whole entry): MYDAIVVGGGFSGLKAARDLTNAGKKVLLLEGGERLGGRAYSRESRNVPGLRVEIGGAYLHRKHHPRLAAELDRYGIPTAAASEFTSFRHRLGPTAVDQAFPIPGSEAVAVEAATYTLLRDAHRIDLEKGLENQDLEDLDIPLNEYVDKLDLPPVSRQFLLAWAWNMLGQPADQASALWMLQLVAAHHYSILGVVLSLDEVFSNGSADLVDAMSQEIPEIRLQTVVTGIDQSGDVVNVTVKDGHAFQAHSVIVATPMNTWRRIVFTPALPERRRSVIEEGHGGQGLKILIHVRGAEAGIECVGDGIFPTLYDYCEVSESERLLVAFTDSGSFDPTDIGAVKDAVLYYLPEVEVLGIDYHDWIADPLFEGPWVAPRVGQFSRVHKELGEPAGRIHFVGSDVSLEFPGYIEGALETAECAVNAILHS
The experiment in a line: Steady-State Kinetics. The conditions noted are these: pH 8. The method, then: Initial rates of amine oxidation were routinely measured by monitoring oxygen consumption in 0.1 M Hepes (pH 8.0) and 0.1 M NaCl at 25 °C using an oxygen electrode (model 5300A, Yellow Springs Instruments, Yellow Springs, OH). With (R,S)-6-hydroxynicotine and (S)-6-hydroxynornicotine, the concentration of enzyme was typically 0.1 μM; this was increased to 4 μM for (S)-nicotine and (R,S)-4-(1-methyl pyrrolidine-2-yl)phenol. The concentration of oxygen was varied by bubbling the desired concentration of oxygen (62 μM to 1.25 mM) into the oxygen electrode cell for ∼10 min.

Broadly, the Kd is the equilibrium constant for the complex coming apart. Higher therefore signals lower affinity. `O=c1ccc([C@@H]2CCCN2)c[nH]1` [(S)-6-hydroxynornicotine]: binding was put at a Kd of 300 µM. In the case of `CN1CCC[C@H]1c1ccc(=O)[nH]c1` [(S)-6-hydroxynicotine], binding was characterised by a dissociation constant (Kd) of 100 µM.

The molecule `CN1CCC[C@H]1c1ccc(O)cc1` [(S)-4-(1-methylpyrrolidine-2-yl)phenol] showed a dissociation constant (Kd) of 2000 µM.
